Source: PMC4257618, “Structures of Plasmodium vivax serine hydroxymethyltransferase: implications for ligand-binding specificity and functional control” (Acta Crystallographica Section D: Biological Crystallography, 2014)

Columns and labels:
[1] = target: T1, serine hydroxymethyltransferase (PvSHMT) (Plasmodium vivax, UniProt A5K8L9); experiment: X-ray crystal structure at […] Å; assay type: binding
T1 construct: gene PVX_100730
T1 sequence (A5K8L9 1-442): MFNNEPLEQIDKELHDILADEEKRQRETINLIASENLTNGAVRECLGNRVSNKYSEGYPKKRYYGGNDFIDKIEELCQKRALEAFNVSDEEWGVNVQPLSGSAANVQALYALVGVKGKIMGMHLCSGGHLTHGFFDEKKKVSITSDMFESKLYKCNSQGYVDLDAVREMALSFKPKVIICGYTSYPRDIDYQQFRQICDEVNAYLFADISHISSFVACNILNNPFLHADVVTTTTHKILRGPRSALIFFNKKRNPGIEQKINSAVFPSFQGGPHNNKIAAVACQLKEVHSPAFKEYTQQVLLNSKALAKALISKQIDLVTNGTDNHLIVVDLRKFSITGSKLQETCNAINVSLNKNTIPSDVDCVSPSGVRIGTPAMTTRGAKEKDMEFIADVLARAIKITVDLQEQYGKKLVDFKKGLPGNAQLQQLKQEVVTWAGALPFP

[2] = target: T1, serine hydroxymethyltransferase (PvSHMT); experiment: X-ray crystal structure at […] Å; assay type: binding; remark: listed apart in the source
[3] = target: T1, serine hydroxymethyltransferase (PvSHMT); experiment: SHMT–MTHFD coupled enzyme assay (L-Ser–THF); quinonoid formation with D-Ser by absorbance; assay type: biochemical
[4] = target: T1, serine hydroxymethyltransferase (PvSHMT); experiment: X-ray crystal structure at […] Å; also […] inhibition at […] in SHMT–MTHFD coupled assay; assay type: binding; settings: read-out: % inhibition at 1.55 mM

Cc1ncc(COP(=O)(O)O)c(C=O)c1O [PLP, pyridoxal-5′-phosphate]
X-ray crystal structure at 2.3 Å [1]: 4pff for the PLP internal aldimine

N[C@@H](CO)C(=O)O [L-Ser, L-serine]
X-ray crystal structure at 2.5 Å [2]: 4pfn for the PLP–L-Ser external aldimine

Nc1nc(=O)c2c([nH]1)NC[C@H](CNc1ccc(C(=O)N[C@@H](CCC(=O)O)C(=O)O)cc1)N2C=O [(6S)-5FTHF, (6S)-5-formyltetrahydrofolate]
Ki [3]: 210 µM

Nc1nc(=O)c2c([nH]1)NC[C@@H](CNc1ccc(C(=O)N[C@@H](CCC(=O)O)C(=O)O)cc1)N2C=O (racemic) [(6R)-5FTHF, (6R)-5-formyltetrahydrofolate]
inhibition at 1550 µM [4]: 30%
